This passage reports IC50 results from patent publication US11155550B2, “Histone deacetylase inhibitors and methods of use thereof” (Reaction Biology Corp., priority 2018, dated 2021).

The experiment concerns the target T1, Human HDAC8 (Homo sapiens, UniProt Q9BY41).
T1 construct: full-length with a C-terminal His tag, MW=46.4 kDa; His tag (C); made in house; host or cells: baculovirus expression system
T1 sequence (Q9BY41 1-377): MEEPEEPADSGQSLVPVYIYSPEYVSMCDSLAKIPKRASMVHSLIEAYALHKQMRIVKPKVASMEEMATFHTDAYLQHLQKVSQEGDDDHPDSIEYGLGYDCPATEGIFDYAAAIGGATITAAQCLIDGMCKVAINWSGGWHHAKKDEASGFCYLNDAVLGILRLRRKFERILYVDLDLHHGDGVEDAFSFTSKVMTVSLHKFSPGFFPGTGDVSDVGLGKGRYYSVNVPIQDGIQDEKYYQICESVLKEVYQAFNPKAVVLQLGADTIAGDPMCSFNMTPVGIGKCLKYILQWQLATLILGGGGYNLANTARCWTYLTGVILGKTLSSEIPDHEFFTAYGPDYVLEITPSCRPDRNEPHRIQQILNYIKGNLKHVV
Kind of experiment: Biochemical HDAC enzymatic assay, HDAC8. To be noted: incubation time 10 min. As to the method: Incubation time for HDAC1/2 is 120 min, and 10 min for other HDACs.
Human HDAC8 (GenBank Accession No. NM_018486), full-length with a C-terminal His tag, MW=46.4 kDa, was expressed in a baculovirus expression system.
(§1) • I. Compound handling: Testing compounds were dissolved in 100% DMSO to a specific concentration. The serial dilution was conducted by epMotion 5070 in DMSO. • II. HDAC reaction buffer: 50 mM Tris-HCl, pH8.0, 137 mM NaCl, 2.7 mM KCl, and 1 mM MgCl2, Added fresh: 1 mg/ml BSA, 1% DMSO. • III. Substrate: Fluorogenic HDAC General Substrate for HDAC1, 2, 3, 6, 10, 11 ans Sirt1, 2 and 3: Arg-His-Lys-Lys(Ac); HDAC8 only substrate: Arg-His-Lys(Ac)-Lys(Ac); Class2A Substrate (HDAC4, 5, 7 and 9): Acetyl-Lys(trifluoroacetyl)-AMC; Sirt5 substrate: Ac-Lys(succinyl)-AMC. • IV. General Reaction Procedure: (Standard IC50 determination) • a. Delivered 2× enzyme in wells of reaction plate except No Enzyme (No En) control wells. Add buffer in No En wells. • b. Delivered compounds in 100% DMSO into the enzyme mixture by Acoustic technology (Echo550; nanoliter range). Spin down and pre-incubation. • c. Delivered 2× Substrate Mixture (Fluorogenic HDAC Substrate and co-factor (500 μM of Nicotinamide adenine dinucleotide (NAD^+) in all Sirt assay) in all reaction wells to initiate the reaction. Spin and shake. • d. Incubated for 1-2 hr. at 30° C. with seal. • e. Added Developer with Trichostatin A (or TMP269 or NAD^+) to stop the reaction and to generate fluorescent color. • f. Fluorescence was read (excitatory, 360; emission, 460) using the EnVision Multilabel Plate Reader (Perkin Elmer) • g. Endpoint reading was taken for analysis after the development reaches plateau. • V. Data Analysis: The percentages of enzyme activity (relative to DMSO controls) and IC50 values were calculated using the GraphPad Prism 4 program based on a sigmoidal dose-response equation.
The inhibitory activities of HDAC of compounds of the invention were determined using biochemical HDAC assays. Compounds were tested at the indicated doses in the biochemical assays of HDAC1, HDAC2, HDAC3, HDAC4, HDAC5, HDAC6, HDAC7, HDAC8, HDAC9, HDAC10, or HDAC11 enzyme. The curve fit and IC50 values were calculated using the GraphPad Prism 4 program based on a sigmoidal dose-response equation.
as §1, with “[…]” for “μM”, “equation. […]” for “equation.”

For the compound `CN1CCC2(CC1)CN(c1ccc(C(=O)Nc3cc(-c4cccs4)ccc3N)cn1)C(=O)O2` [Example 4, N-(2-amino-5-(thiophen-2-yl)phenyl)-6-(8-methyl-2-oxo-1-oxa-3,8-diazaspiro[4.5]decan-3-yl)nicotinamide], the IC50 (commonly the concentration at which inhibition is half-maximal) (Table 1) was over 20000 nM.

The compound `O=C(NO)c1ccc(CN2C(=O)c3ccccc3C23OCCO3)cc1` [Compound Example 8, N-hydroxy-4-((3-oxospiro[isoindoline-1,2′-[1,3]dioxolan]-2-yl)methyl)benzamide] displayed an IC50 (Table 2) of 400 nM.

Under “Table 1”, `Nc1ccc(-c2cccs2)cc1NC(=O)c1ccc(CN2C(=O)CCCC23CNC3)cc1` [Example 1, N-(2-amino-5-(thiophen-2-yl)phenyl)-4-((6-oxo-2,5-diazaspiro[3.5]nonan-5-yl)methyl)benzamide] showed a half-maximal inhibitory concentration (IC50) of over 20000 nM.

Take `Nc1cc(F)ccc1NC(=O)c1ccc(CN2C(=O)CCCC23CNC3)cc1` [Example 3, N-(2-amino-4-fluorophenyl)-4-((6-oxo-2,5-diazaspiro[3.5]nonan-5-yl)methyl)benzamide]: under “Table 1”, the IC50 is over 10000 nM.

`O=C(NO)c1ccc(CN2C(=O)c3ccccc3C23CCN(C2CC2)CC3)cc1` [Compound Example 12, 4-((1′-cyclopropyl-3-oxospiro[isoindoline-1,4′-piperidin]-2-yl)methyl)-N-hydroxybenzamide] displayed an IC50 (Table 2) of 1200 nM.

`CN(C)C(=O)N1CCC2(CC1)c1ccccc1C(=O)N2Cc1ccc(C(=O)NO)cc1` [Compound Example 11, 2-(4-(hydroxycarbamoyl)benzyl)-N,N-dimethyl-3-oxospiro[isoindoline-1,4′-piperidine]-1′-carboxamide] yielded a half-maximal inhibitory concentration (IC50) (Table 2) of 520 nM.

For the setting “Table 1”, `Nc1ccc(-c2ccc(F)cc2)cc1NC(=O)c1ccc(N2CC3(CCOCC3)OC2=O)nc1` [Example 5, N-(4-amino-4′-fluoro-[1,1′-biphenyl]-3-yl)-6-(2-oxo-1,8-dioxa-3-azaspiro[4.5]decan-3-yl)nicotinamide] gave an IC50 of over 20000 nM.

Compound `Nc1ccc(-c2cccs2)cc1NC(=O)c1ccc(CN2C(=O)CCC23CCNCC3)cc1` [Example 2, N-(2-amino-5-(thiophen-2-yl)phenyl)-4-((2-oxo-1,8-diazaspiro[4.5]decan-1-yl)methyl)benzamide] returned an IC50 (Table 1) of over 20000 nM.

Take `O=C(NO)c1ccc(CN2C(=O)C3(CCOC3)c3ccccc32)cc1` (centres unmarked) [Compound Example 9]: the 50% inhibitory concentration (IC50) (Table 2) is 1920 nM. This counts as single-digit micromolar.

Where the note is “Table 2”, `O=C(NO)c1ccc(CN2C(=O)c3ccccc3C23CCNCC3)cc1` [Compound Example 10, N-hydroxy-4-((3-oxospiro[isoindoline-1,4′-piperidin]-2-yl)methyl)benzamide] yielded a half-inhibitory concentration (IC50) of 710 nM.

Consider `Nc1ccc(-c2cccs2)cc1NC(=O)c1ccc(N2CC3(CCNCC3)CCC2=O)nc1` [Example 6, N-(2-amino-5-(thiophen-2-yl)phenyl)-6-(3-oxo-2,9-diazaspiro[5.5]undecan-2-yl)nicotinamide], for which the half-maximal inhibitory concentration (IC50) (Table 1) is over 20000 nM.
